Assay results published in US10167262B2, “Herbicidal substituted 3-arylpyrazoles” (FMC CORPORATION, priority 2014, dated 2019).

Columns and labels:
Test in all cases: Test E pre-/postemergence greenhouse test, plant response rating 0-100
Type in all cases: in vivo
[1] = tested on: Brazilian crabgrass (Digitaria horizontalis); conditions: Digitaria horizontalis, post-emergence, Postemergence, scale 0 to 100, read-out: Plant response rating, Crabgrass, Brazil
In short: (§1)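 Pre: seeded silt loam sprayed; post: 1–4-leaf plants (2–18 cm) in peat-based mix sprayed. Formulation: non-phytotoxic solvent + surfactant. Greenhouse 14–21 d; visual rating vs controls, 0 = no effect, 100 = complete control.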

[2] = tested on: arrowleaf sida (Sida rhombifolia); conditions: scale 0 to 100
In short: as §1

[3] = tested on: barnyardgrass (Echinochloa crus-galli); conditions: Echinochloa crus-galli, post-emergence, Postemergence, scale 0 to 100
In short: as §1

corn (Zea mays) = conditions: scale 0 to 100
In short: as §1

[4] = tested on: dayflower (Virginia (VA) dayflower, Commelina virginica); conditions: scale 0 to 100
In short: as §1

[5] = tested on: fall panicum (Panicum dichotomiflorum); conditions: Panicum dichotomiflorum, post-emergence, Postemergence, scale 0 to 100
In short: as §1

[6] = tested on: field bindweed (Convolvulus arvensis); conditions: scale 0 to 100
In short: as §1

[7] = tested on: hairy beggarticks (Bidens pilosa); conditions: Preemergence, scale 0 to 100
In short: as §1

[8] = tested on: palmer pigweed (Amaranthus palmeri); conditions: scale 0 to 100; for Pigweed, Palmer plant response rating: Preemergence
In short: as §1

[9] = tested on: sandbur (southern sandbur, Cenchrus echinatus); conditions: Cenchrus echinatus, post-emergence, Postemergence, scale 0 to 100
In short: as §1

soybean (Glycine max) = conditions: scale 0 to 100; for Soybean plant response rating: Preemergence
In short: as §1

[10] = tested on: waterhemp (common waterhemp, Amaranthus rudis); conditions: scale 0 to 100; for Waterhemp plant response rating: Preemergence
In short: as §1

**Q.** `Cn1cc(C(=O)c2ccccc2)c(-c2cc(Cl)cc(Cl)c2)n1` [Compound 54, [3-(3,5-dichlorophenyl)-1-methyl-1H-pyrazol-4-yl]phenylmethanone] was tested. Which pest or weed control at 16 g/ha ([1]; 16 g ai/ha) did it give?
**A.** 0%

**Q.** What about the pest or weed control at 31 g/ha ([1]; 31 g ai/ha) of the same compound?
**A.** 0%

**Q.** What about the pest or weed control at 62 g/ha ([1]; 62 g ai/ha) of the same compound?
**A.** 0%

**Q.** And the pest or weed control at 125 g/ha ([1]; 125 g ai/ha)?
**A.** 0%

**Q.** What about the pest or weed control at 250 g/ha ([1]; 250 g ai/ha) of the same compound?
**A.** 0%

**Q.** And the “Arrowleaf Sida plant response rating” value ([2]; Preemergence, 125 g ai/ha)?
**A.** 43

**Q.** And the “Arrowleaf Sida plant response rating” value ([2]; Preemergence, 250 g ai/ha)?
**A.** 80

**Q.** And the pest or weed control at 16 g/ha ([2]; Sida rhombifolia, post-emergence, Postemergence, 16 g ai/ha)?
**A.** 30%

**Q.** What about the pest or weed control at 31 g/ha ([2]; Sida rhombifolia, post-emergence, Postemergence, 31 g ai/ha) of the same compound?
**A.** 50%

**Q.** And the pest or weed control at 62 g/ha ([2]; Sida rhombifolia, post-emergence, Postemergence, 62 g ai/ha)?
**A.** 50%

**Q.** What about the pest or weed control at 125 g/ha ([2]; Sida rhombifolia, post-emergence, Postemergence, 125 g ai/ha) of the same compound?
**A.** 65%

**Q.** What about the pest or weed control at 250 g/ha ([2]; Sida rhombifolia, post-emergence, Postemergence, 250 g ai/ha) of the same compound?
**A.** 75%

**Q.** What about the pest or weed control at 1000 g/ha ([2]; Sida rhombifolia, pre-emergence, Preemergence, 1000 g ai/ha) of the same compound?
**A.** 100%

**Q.** What about the pest or weed control at 16 g/ha ([3]; 16 g ai/ha) of the same compound?
**A.** 0%

**Q.** And the pest or weed control at 31 g/ha ([3]; 31 g ai/ha)?
**A.** 0%

**Q.** What about the pest or weed control at 62 g/ha ([3]; 62 g ai/ha) of the same compound?
**A.** 0%

**Q.** What about the pest or weed control at 125 g/ha ([3]; 125 g ai/ha) of the same compound?
**A.** 0%

**Q.** And the pest or weed control at 250 g/ha ([3]; 250 g ai/ha)?
**A.** 0%

**Q.** And the “Corn plant response rating” value (corn (Zea mays); Preemergence, 125 g ai/ha)?
**A.** 0

**Q.** And the “Corn plant response rating” value (corn (Zea mays); Preemergence, 250 g ai/ha)?
**A.** 0

**Q.** And the Corn plant response rating (crop injury, 0 = no effect, 100 = complete kill) at 16 g/ha (corn (Zea mays); Zea mays, post-emergence, Postemergence, 16 g ai/ha)?
**A.** 0%

**Q.** What about the Corn plant response rating (crop injury, 0 = no effect, 100 = complete kill) at 31 g/ha (corn (Zea mays); Zea mays, post-emergence, Postemergence, 31 g ai/ha) of the same compound?
**A.** 0%

**Q.** What about the Corn plant response rating (crop injury, 0 = no effect, 100 = complete kill) at 62 g/ha (corn (Zea mays); Zea mays, post-emergence, Postemergence, 62 g ai/ha) of the same compound?
**A.** 0%

**Q.** What about the Corn plant response rating (crop injury, 0 = no effect, 100 = complete kill) at 125 g/ha (corn (Zea mays); Zea mays, post-emergence, Postemergence, 125 g ai/ha) of the same compound?
**A.** 0%

**Q.** And the Corn plant response rating (crop injury, 0 = no effect, 100 = complete kill) at 250 g/ha (corn (Zea mays); Zea mays, post-emergence, Postemergence, 250 g ai/ha)?
**A.** 0%

**Q.** And the Corn plant response rating (crop injury, 0 = no effect, 100 = complete kill) at 1000 g/ha (corn (Zea mays); Zea mays, pre-emergence, Preemergence, 1000 g ai/ha)?
**A.** 0%

**Q.** What about the pest or weed control at 16 g/ha ([4]; Commelina virginica, post-emergence, Postemergence, 16 g ai/ha) of the same compound?
**A.** 0%

**Q.** And the pest or weed control at 31 g/ha ([4]; Commelina virginica, post-emergence, Postemergence, 31 g ai/ha)?
**A.** 0%

**Q.** What about the pest or weed control at 62 g/ha ([4]; Commelina virginica, post-emergence, Postemergence, 62 g ai/ha) of the same compound?
**A.** 0%

**Q.** What about the pest or weed control at 125 g/ha ([4]; Commelina virginica, post-emergence, Postemergence, 125 g ai/ha) of the same compound?
**A.** 0%

**Q.** And the pest or weed control at 250 g/ha ([4]; Commelina virginica, post-emergence, Postemergence, 250 g ai/ha)?
**A.** 0%

**Q.** And the pest or weed control at 1000 g/ha ([4]; Commelina virginica, pre-emergence, Preemergence, 1000 g ai/ha)?
**A.** 0%

**Q.** What about the “Dayflower, VA plant response rating” value ([4]; Preemergence, 125 g ai/ha) of the same compound?
**A.** 0

**Q.** What about the “Dayflower, VA plant response rating” value ([4]; Preemergence, 250 g ai/ha) of the same compound?
**A.** 0

**Q.** And the pest or weed control at 31 g/ha ([5]; 31 g ai/ha)?
**A.** 0%

**Q.** And the pest or weed control at 62 g/ha ([5]; 62 g ai/ha)?
**A.** 0%

**Q.** And the pest or weed control at 125 g/ha ([5]; 125 g ai/ha)?
**A.** 0%

**Q.** And the pest or weed control at 250 g/ha ([5]; 250 g ai/ha)?
**A.** 0%

**Q.** And the pest or weed control at 16 g/ha ([6]; Convolvulus arvensis, post-emergence, Postemergence, 16 g ai/ha)?
**A.** 0%

**Q.** What about the pest or weed control at 31 g/ha ([6]; Convolvulus arvensis, post-emergence, Postemergence, 31 g ai/ha) of the same compound?
**A.** 0%

**Q.** What about the pest or weed control at 62 g/ha ([6]; Convolvulus arvensis, post-emergence, Postemergence, 62 g ai/ha) of the same compound?
**A.** 0%

**Q.** What about the pest or weed control at 125 g/ha ([6]; Convolvulus arvensis, post-emergence, Postemergence, 125 g ai/ha) of the same compound?
**A.** 0%

**Q.** What about the pest or weed control at 250 g/ha ([6]; Convolvulus arvensis, post-emergence, Postemergence, 250 g ai/ha) of the same compound?
**A.** 0%

**Q.** What about the pest or weed control at 1000 g/ha ([6]; Convolvulus arvensis, pre-emergence, Preemergence, 1000 g ai/ha) of the same compound?
**A.** 0%

**Q.** What about the “Field Bindweed plant response rating” value ([6]; Preemergence, 125 g ai/ha) of the same compound?
**A.** 0

**Q.** What about the “Field Bindweed plant response rating” value ([6]; Preemergence, 250 g ai/ha) of the same compound?
**A.** 0

**Q.** What about the pest or weed control at 1000 g/ha ([7]; Bidens pilosa, pre-emergence, 1000 g ai/ha) of the same compound?
**A.** 90%

**Q.** What about the “Beggarticks plant response rating” value ([7]; 125 g ai/ha) of the same compound?
**A.** 0

**Q.** What about the “Beggarticks plant response rating” value ([7]; 250 g ai/ha) of the same compound?
**A.** 23

**Q.** And the pest or weed control at 31 g/ha ([8]; Amaranthus palmeri, post-emergence, Postemergence, 31 g ai/ha)?
**A.** 40%

**Q.** What about the pest or weed control at 62 g/ha ([8]; Amaranthus palmeri, post-emergence, Postemergence, 62 g ai/ha) of the same compound?
**A.** 60%

**Q.** What about the pest or weed control at 125 g/ha ([8]; Amaranthus palmeri, post-emergence, Postemergence, 125 g ai/ha) of the same compound?
**A.** 75%

**Q.** And the pest or weed control at 250 g/ha ([8]; Amaranthus palmeri, post-emergence, Postemergence, 250 g ai/ha)?
**A.** 95%

**Q.** What about the “Pigweed, Palmer plant response rating” value ([8]; 125 g ai/ha) of the same compound?
**A.** 86

**Q.** What about the “Pigweed, Palmer plant response rating” value ([8]; 250 g ai/ha) of the same compound?
**A.** 95

**Q.** And the pest or weed control at 31 g/ha ([9]; 31 g ai/ha)?
**A.** 0%

**Q.** What about the pest or weed control at 62 g/ha ([9]; 62 g ai/ha) of the same compound?
**A.** 0%

**Q.** What about the pest or weed control at 125 g/ha ([9]; 125 g ai/ha) of the same compound?
**A.** 0%

**Q.** And the pest or weed control at 250 g/ha ([9]; 250 g ai/ha)?
**A.** 0%

**Q.** And the plant injury at 31 g/ha (soybean (Glycine max); Glycine max, post-emergence, Postemergence, 31 g ai/ha)?
**A.** 0%

**Q.** And the plant injury at 62 g/ha (soybean (Glycine max); Glycine max, post-emergence, Postemergence, 62 g ai/ha)?
**A.** 0%

**Q.** And the plant injury at 125 g/ha (soybean (Glycine max); Glycine max, post-emergence, Postemergence, 125 g ai/ha)?
**A.** 0%

**Q.** And the plant injury at 250 g/ha (soybean (Glycine max); Glycine max, post-emergence, Postemergence, 250 g ai/ha)?
**A.** 0%

**Q.** What about the “Soybean plant response rating” value (soybean (Glycine max); 125 g ai/ha) of the same compound?
**A.** 0

**Q.** What about the “Soybean plant response rating” value (soybean (Glycine max); 250 g ai/ha) of the same compound?
**A.** 12

**Q.** And the pest or weed control at 62 g/ha ([10]; Amaranthus tuberculatus, post-emergence, Postemergence, 62 g ai/ha)?
**A.** 60%

**Q.** What about the pest or weed control at 125 g/ha ([10]; Amaranthus tuberculatus, post-emergence, Postemergence, 125 g ai/ha) of the same compound?
**A.** 70%

**Q.** And the pest or weed control at 250 g/ha ([10]; Amaranthus tuberculatus, post-emergence, Postemergence, 250 g ai/ha)?
**A.** 95%

**Q.** What about the “Waterhemp plant response rating” value ([10]; 125 g ai/ha) of the same compound?
**A.** 96

**Q.** What about the “Waterhemp plant response rating” value ([10]; 250 g ai/ha) of the same compound?
**A.** 99
